Measurements taken from paper PMC3317655, “The Isolation and Characterization of β-Glucogallin as a Novel Aldose Reductase Inhibitor from Emblica officinalis” (PLoS ONE, 2012).

Assays:
[1] = molecular target: T1, human aldose reductase (AKR1B1) (Homo sapiens, UniProt P15121); experiment: Ex vivo culture of transgenic mouse lenses expressing human AKR1B1; sorbitol accumulation at […] sorbinil; type: cell-based; details: read-out: % inhibition of sorbitol accumulation at 10 μM
[2] = molecular target: T1, human aldose reductase (AKR1B1); experiment: Purified recombinant enzyme, NADPH oxidation at […] nm, saturating glucose ([…]) as substrate; type: biochemical

IC50 [2]	SMILES	inhibition at 10 µM [1]
	O=C1NC(=O)[C@@]2(CCOc3ccc(F)cc32)N1 [sorbinil]	97%
17 ± 1 µM	O=C(O[C@@H]1O[C@H](CO)[C@@H](O)[C@H](O)[C@H]1O)c1cc(O)c(O)c(O)c1 [β-glucogallin]	
